{"source": "patent US9056874B2", "about": "“Complement pathway modulators and uses thereof” (NOVARTIS AG, priority 2012, dated 2015)"}
{"target": "factor B (Homo sapiens, UniProt P00751)", "sequence (P00751 260-764 limits assumed)": "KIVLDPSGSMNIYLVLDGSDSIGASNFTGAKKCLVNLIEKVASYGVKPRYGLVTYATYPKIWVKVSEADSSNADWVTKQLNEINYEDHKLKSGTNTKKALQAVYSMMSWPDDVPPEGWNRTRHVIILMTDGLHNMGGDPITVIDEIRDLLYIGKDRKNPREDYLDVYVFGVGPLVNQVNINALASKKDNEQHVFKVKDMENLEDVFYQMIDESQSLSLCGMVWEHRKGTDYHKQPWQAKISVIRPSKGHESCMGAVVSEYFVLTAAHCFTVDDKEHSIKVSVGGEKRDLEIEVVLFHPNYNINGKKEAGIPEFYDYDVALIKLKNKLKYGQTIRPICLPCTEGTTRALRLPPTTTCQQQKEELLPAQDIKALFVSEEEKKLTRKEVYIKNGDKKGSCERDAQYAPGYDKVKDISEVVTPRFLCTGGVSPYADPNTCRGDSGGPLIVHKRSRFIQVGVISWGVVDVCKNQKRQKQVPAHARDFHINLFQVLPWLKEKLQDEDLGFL", "sequence (Q91132 23-649 partner limits assumed)": "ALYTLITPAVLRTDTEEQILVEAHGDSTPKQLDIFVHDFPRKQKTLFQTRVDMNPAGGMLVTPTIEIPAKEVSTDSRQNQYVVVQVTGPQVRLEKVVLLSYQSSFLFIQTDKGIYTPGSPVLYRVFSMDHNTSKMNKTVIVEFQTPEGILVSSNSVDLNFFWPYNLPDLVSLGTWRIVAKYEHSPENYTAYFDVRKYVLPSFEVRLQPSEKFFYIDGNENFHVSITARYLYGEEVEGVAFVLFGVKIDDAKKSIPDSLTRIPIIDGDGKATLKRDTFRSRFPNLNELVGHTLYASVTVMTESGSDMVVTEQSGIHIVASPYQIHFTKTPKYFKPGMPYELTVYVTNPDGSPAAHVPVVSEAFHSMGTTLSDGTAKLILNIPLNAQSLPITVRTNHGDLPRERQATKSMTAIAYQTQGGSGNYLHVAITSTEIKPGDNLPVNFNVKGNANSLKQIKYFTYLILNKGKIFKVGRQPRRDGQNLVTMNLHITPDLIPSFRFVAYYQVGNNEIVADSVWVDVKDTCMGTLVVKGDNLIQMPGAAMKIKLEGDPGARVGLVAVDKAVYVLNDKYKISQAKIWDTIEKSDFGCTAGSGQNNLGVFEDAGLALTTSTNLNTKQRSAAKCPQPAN", "sequence (Q91132 733-984 partner limits assumed)": "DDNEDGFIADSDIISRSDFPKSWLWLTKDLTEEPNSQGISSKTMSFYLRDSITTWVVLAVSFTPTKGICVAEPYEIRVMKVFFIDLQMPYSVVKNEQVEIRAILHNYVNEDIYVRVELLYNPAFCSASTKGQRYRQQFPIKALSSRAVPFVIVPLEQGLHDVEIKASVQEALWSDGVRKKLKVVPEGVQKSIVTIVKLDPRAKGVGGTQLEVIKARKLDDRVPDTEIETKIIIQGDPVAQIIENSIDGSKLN", "sequence (Q91132 1264-1642 partner limits assumed)": "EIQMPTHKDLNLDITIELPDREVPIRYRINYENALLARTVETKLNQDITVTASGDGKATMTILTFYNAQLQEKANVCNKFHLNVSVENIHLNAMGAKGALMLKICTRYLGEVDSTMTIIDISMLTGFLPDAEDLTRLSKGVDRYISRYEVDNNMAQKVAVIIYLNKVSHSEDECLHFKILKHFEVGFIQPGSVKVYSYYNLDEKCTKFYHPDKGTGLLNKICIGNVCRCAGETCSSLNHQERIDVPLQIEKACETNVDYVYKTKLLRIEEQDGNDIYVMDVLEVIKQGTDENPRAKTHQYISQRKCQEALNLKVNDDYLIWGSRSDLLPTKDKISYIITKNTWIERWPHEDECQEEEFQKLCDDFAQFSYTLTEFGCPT", "assay": "factor B inhibition assay of Biological Example 1", "type": "biochemical", "design": "CVF-Bb complex prepared from purified cobra venom factor (1 μM), recombinant human complement factor B; made in house; host or cells: drosophila cells (factor B); E. coli (factor D used to form the complex)", "conditions": "IC50 (nM), assay of Biological Example 1 (Table 1)", "units": {"IC50": "nM"}}
{"smiles": "COC(c1nc2cc(C#N)ccc2[nH]1)(c1c(S(C)(=O)=O)cc(C)c2[nH]ccc12)C(F)(F)F", "note": "(single isomer, unassigned; (-)) [15-D b) (−), (−)-2-(2,2,2-trifluoro-1-methoxy-1-(7-methyl-5-(methylsulfonyl)-1H-indol-4-yl)ethyl)-1H-benzo[d]imidazole-5-carbonitrile]", "IC50": 680}
{"smiles": "CNC(c1nc2cc(C#N)ccc2[nH]1)(c1c(S(C)(=O)=O)cc(C)c2[nH]ccc12)C(F)(F)F", "note": "(single isomer, unassigned; (-)) [16-B b) (−), (−)-2-(2,2,2-trifluoro-1-(7-methyl-5-(methylsulfonyl)-1H-indol-4-yl)-1-(methylamino)ethyl)-1H-benzo[d]imidazole-5-carbonitrile]", "IC50": 180}
{"smiles": "Cc1cc(S(C)(=O)=O)c(C(N)(c2nc3cc(C#N)ccc3[nH]2)C(F)(F)F)c2cc[nH]c12", "note": "(single isomer, unassigned; (-)) [17-B b) (−), (−)-2-(1-amino-2,2,2-trifluoro-1-(7-methyl-5-(methylsulfonyl)-1H-indol-4-yl)ethyl)-1H-benzo[d]imidazole-5-carbonitrile]", "IC50": 1330}
{"smiles": "COc1cc(C)c2[nH]ccc2c1C(O)c1nc2cc(C#N)ccc2[nH]1", "note": "(single isomer, unassigned; (-)) [24-B b) (−), (−)-2-(hydroxy(5-methoxy-7-methyl-1H-indol-4-yl)methyl)-1H-benzo[d]imidazole-5-carbonitrile]", "IC50": 90}
{"smiles": "CCOc1cc(C)c2[nH]ccc2c1C(O)c1nc2cc(C#N)ccc2[nH]1", "note": "(single isomer, unassigned; (-)) [24-C b) (−), (−)-2-((5-ethoxy-7-methyl-1H-indol-4-yl)(hydroxy)methyl)-1H-benzo[d]imidazole-5-carbonitrile]", "IC50": 600}
{"smiles": "Cc1cc(OC(C)C)c(C(O)c2nc3cc(C#N)ccc3[nH]2)c2cc[nH]c12", "note": "(single isomer, unassigned; (-)) [24-D b) (−), (−)-2-(hydroxy(5-isopropoxy-7-methyl-1H-indol-4-yl)methyl)-1H-benzo[d]imidazole-5-carbonitrile]", "IC50": 490}
{"smiles": "CCOc1cc(C)c2[nH]ccc2c1C(C)(O)c1nc2cc(C#N)ccc2[nH]1", "note": "(single isomer, unassigned; (-)) [26-D b) (−), (−)-2-(1-(5-ethoxy-7-methyl-1H-indol-4-yl)-1-hydroxyethyl)-1H-benzo[d]imidazole-5-carbonitrile]", "IC50": 440}
{"smiles": "Cc1cc(OC(C)C)c(C(C)(O)c2nc3cc(C#N)ccc3[nH]2)c2cc[nH]c12", "note": "(single isomer, unassigned; (-)) [26-E b) (−), (−)-2-(1-hydroxy-1-(5-isopropoxy-7-methyl-1H-indol-4-yl)ethyl)-1H-benzo[d]imidazole-5-carbonitrile]", "IC50": 170}
{"smiles": "CCC(O)(c1nc2cc(C#N)ccc2[nH]1)c1c(OC(C)C)cc(C)c2[nH]ccc12", "note": "(single isomer, unassigned; (-)) [26-F b) (−), (−)-2-(1-hydroxy-1-(5-isopropoxy-7-methyl-1H-indol-4-yl)propyl)-1H-benzo[d]imidazole-5-carbonitrile]", "IC50": 380}
{"smiles": "Cc1cc(OCC2CC2)c(C(C)(O)c2nc3cc(C#N)ccc3[nH]2)c2cc[nH]c12", "note": "(single isomer, unassigned; (-)) [26-G b) (−), (−)-2-(1-(5-(cyclopropylmethoxy)-7-methyl-1H-indol-4-yl)-1-hydroxyethyl)-1H-benzo[d]imidazole-5-carbonitrile]", "IC50": 4380}
{"smiles": "[2H]C([2H])([2H])C(OC)(c1nc2cc(C#N)ccc2[nH]1)c1c(OC)cc(C)c2[nH]ccc12", "note": "(single isomer, unassigned; (-)) [27-E b) (−), (−)-2-((^2H3)methyl(methoxy)(5-methoxy-7-methyl-1H-indol-4-yl)methyl)-1H-benzo[d]imidazole-5-carbonitrile]", "IC50": 4}
{"smiles": "[2H]C([2H])([2H])OC(C)(c1nc2cc(C#N)ccc2[nH]1)c1c(OC)cc(C)c2[nH]ccc12", "note": "(single isomer, unassigned; (-)) [27-F b) (−), (−)-2-(1-(^2H3)methoxy-1-(5-methoxy-7-methyl-1H-indol-4-yl)ethyl)-1H-benzo[d]imidazole-5-carbonitrile]", "IC50": 9}
{"smiles": "COc1cc(C)c2[nH]cc(Cl)c2c1C(O)c1nc2cc(C#N)ccc2[nH]1", "note": "(single isomer, unassigned; (-)) [28-C b) (−), (−)-2-((3-chloro-5-methoxy-7-methyl-1H-indol-4-yl)(hydroxy)methyl)-1H-benzo[d]imidazole-5-carbonitrile]", "IC50": 140}
{"smiles": "COc1cc(C)c2[nH]ccc2c1C(O)(c1nc2cc(C#N)ccc2[nH]1)C(F)(F)F", "note": "(single isomer, unassigned; (-)) [33-B b) (−), (−)-2-(2,2,2-trifluoro-1-hydroxy-1-(5-methoxy-7-methyl-1H-indol-4-yl)ethyl)-1H-benzo[d]imidazole-5-carbonitrile]", "IC50": 50}
{"smiles": "COc1cc(C)c2[nH]ccc2c1C(OC)(c1nc2cc(C#N)ccc2[nH]1)C(F)(F)F", "note": "(single isomer, unassigned; (-)) [34-B b) (−), (−)-2-(2,2,2-trifluoro-1-methoxy-1-(5-methoxy-7-methyl-1H-indol-4-yl)ethyl)-1H-benzo[d]imidazole-5-carbonitrile]", "IC50": 10}
{"smiles": "COc1cc(C)c2[nH]ccc2c1C(OCC(=O)O)(c1nc2cc(C#N)ccc2[nH]1)C(F)(F)F", "note": "(single isomer, unassigned; (-)) [35-C (−), (−)-2-(1-(5-cyano-1H-benzo[d]imidazol-2-yl)-2,2,2-trifluoro-1-(5-methoxy-7-methyl-1H-indol-4-yl)ethoxy)acetic acid]", "IC50": 40}
{"smiles": "CNC(c1nc2cc(C#N)ccc2[nH]1)(c1c(OC)cc(C)c2[nH]ccc12)C(F)(F)F", "note": "(single isomer, unassigned; (-)) [38-B b) (−), (−)-2-(2,2,2-trifluoro-1-(5-methoxy-7-methyl-1H-indol-4-yl)-1-(methylamino)ethyl)-1H-benzo[d]imidazole-5-carbonitrile]", "IC50": 8}
{"smiles": "CNC(C)(c1nc2cc(C#N)ccc2[nH]1)c1c(OC)cc(C)c2[nH]ccc12", "note": "(single isomer, unassigned; (-)) [42-D b) (−), (−)-2-(1-(5-methoxy-7-methyl-1H-indol-4-yl)-1-(methylamino)ethyl)-1H-benzo[d]imidazole-5-carbonitrile]", "IC50": 5}
{"smiles": "Cc1cc(C)c2[nH]ccc2c1C(O)c1nc2cc(C#N)ccc2[nH]1", "note": "(single isomer, unassigned; (-)) [64-C b) (−), (−)-2-((5,7-dimethyl-1H-indol-4-yl)(hydroxy)methyl)benzo[d]imidazole-5-carbonitrile]", "IC50": 60}
{"smiles": "Cc1cc(CO)c(C(O)c2nc3cc(C#N)ccc3[nH]2)c2cc[nH]c12", "note": "(single isomer, unassigned; (-)) [65-D b) (−), (−)-2-(hydroxy(5-(hydroxymethyl)-7-methyl-1H-indol-4-yl)methyl)-1H-benzo[d]imidazole-5-carbonitrile]", "IC50": 270}
{"smiles": "CCOCc1cc(C)c2[nH]ccc2c1C(O)c1nc2cc(C#N)ccc2[nH]1", "note": "(single isomer, unassigned; (-)) [66-D b) (−), (−)-2-((5-(ethoxymethyl)-7-methyl-1H-indol-4-yl)(hydroxy)methyl)-1H-benzo[d]imidazole-5-carbonitrile]", "IC50": 5110}
{"smiles": "CCc1cc(C)c2[nH]ccc2c1C(O)c1nc2cc(C#N)ccc2[nH]1", "note": "(single isomer, unassigned; (-)) [67-A b) (−), (−)-2-((5-ethyl-7-methyl-1H-indol-4-yl)(hydroxy)methyl)-1H-benzo[d]imidazole-5-carbonitrile]", "IC50": 160}
{"smiles": "Cc1cc(CC(C)C)c(C(O)c2nc3cc(C#N)ccc3[nH]2)c2cc[nH]c12", "note": "(single isomer, unassigned; (-)) [67-C b) (−), (−)-2-(hydroxy(5-(isobutyl)-7-methyl-1H-indol-4-yl)methyl)-1H-benzo[d]imidazole-5-carbonitrile]", "IC50": 6750}
{"smiles": "Cc1cc(C(C)C)c(C(O)c2nc3cc(C#N)ccc3[nH]2)c2cc[nH]c12", "note": "(single isomer, unassigned; (-)) [67-D b) (−), (−)-2-(hydroxy(5-isopropyl-7-methyl-1H-indol-4-yl)methyl)-1H-benzo[d]imidazole-5-carbonitrile]", "IC50": 60}
{"smiles": "Cc1cc(Cl)c(C(O)c2nc3cc(C#N)ccc3[nH]2)c2cc[nH]c12", "note": "(single isomer, unassigned; (-)) [67-E b) (−), (−)-2-((5-chloro-7-methyl-1H-indol-4-yl)(hydroxy)methyl)-1H-benzo[d]imidazole-5-carbonitrile]", "IC50": 1180}
{"smiles": "Cc1cc(C)c2[nH]ccc2c1C(O)c1nc2c(C)c(C#N)ccc2[nH]1", "note": "(single isomer, unassigned; (-)) [67-G b) (−), (−)-2-((5,7-dimethyl-1H-indol-4-yl)(hydroxy)methyl)-4-methyl-1H-benzo[d]imidazole-5-carbonitrile]", "IC50": 570}
{"smiles": "CCc1cc(C)c2[nH]ccc2c1C(OC)c1nc2cc(C#N)ccc2[nH]1", "note": "(single isomer, unassigned; (-)) [70-D b) (−), (−)-2-((5-ethyl-7-methyl-1H-indol-4-yl)(methoxy)methyl)-1H-benzo[d]imidazole-5-carbonitrile]", "IC50": 480}
{"smiles": "COC(c1nc2cc(C#N)ccc2[nH]1)c1c(CC(C)C)cc(C)c2[nH]ccc12", "note": "(single isomer, unassigned; (-)) [71 b) (−), (−)-2-((5-isobutyl-7-methyl-1H-indol-4-yl)(methoxy)methyl)-1H-benzo[d]imidazole-5-carbonitrile]", "IC50": 4590}
{"smiles": "Cc1cc(C)c2[nH]ccc2c1C(C)(O)c1nc2cc(C#N)ccc2[nH]1", "note": "(single isomer, unassigned; (-)) [76-B b) (−), (−)-2-(1-(5,7-Dimethyl-1H-indol-4-yl)-1-hydroxyethyl)-1H-benzo[d]imidazole-5-carbonitrile]", "IC50": 190}
{"smiles": "CCc1cc(C)c2[nH]ccc2c1C(C)(O)c1nc2cc(C#N)ccc2[nH]1", "note": "(single isomer, unassigned; (-)) [77-C b) (−), (−)-2-(1-(5-ethyl-7-methyl-1H-indol-4-yl)-1-hydroxyethyl)-1H-benzo[d]imidazole-5-carbonitrile]", "IC50": 20}
